Patent US11279733B2, “Peptide antibiotics” (priority 2017, dated 2022)
In brackets after ≈: the same amount, converted by molar mass. Read-outs that look alike come from different tables or passages of the source. Positions of bridges follow the written chain, without caps; N, C: chain ends. Non-standard residues stand in square brackets, D forms with d. Residues, ends and D or L forms follow the SMILES beside them. *: point of attachment. Decanoyl(3R-OH) = CCCCCCC[C@@H](O)CC(=O)*; dDab = NCC[C@@H](N)C(=O)O; X8 = CC(C)CCCC(C)CC(=O)*; Dab = NCC[C@H](N)C(=O)O

Assays:
[1] = tested on: E. coli ATCC 25922; conditions: ATCC 25922
Procedure, shortened: (§1)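 Mid-log cultures grown in Mueller Hinton broth at 37° C were tested by 2-fold broth microdilution at 5×10^5 CFU/mL final. Compounds were dissolved in water and tested over a final range of 32 to 0.015 μg/mL.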

[2] = tested on: K. pneumoniae GN_106, PmxR; conditions: GN 106, PmxR
Procedure, shortened: as §1

[3] = tested on: A. baumannii ATCC 19606; conditions: ATCC 19606
Procedure, shortened: as §1

[4] = tested on: P. aeruginosa ATCC 27853; conditions: ATCC 27853
Procedure, shortened: as §1

[5] = tested on: A. baumannii GN_093 PmxR; conditions: GN 093 PmxR
Procedure, shortened: as §1

[6] = tested on: K. pneumoniae ATCC BAA-2146, NDM-1 pos; conditions: ATCC BAA-2146
Procedure, shortened: as §1

[7] = tested on: K. pneumoniae ATCC 13883; conditions: ATCC 13883
Procedure, shortened: as §1

[8] = tested on: K. pneumoniae ATCC 700603, MDR; conditions: ATCC 700603
Procedure, shortened: as §1

[9] = tested on: S. aureus ATCC 25923, MSSA; conditions: ATCC 25923
Procedure, shortened: as §1

[10] = tested on: K. pneumoniae GN_102 PmxR; conditions: GN 102 PmxR
Procedure, shortened: as §1

[11] = tested on: P. aeruginosa GN_105, PmxR; conditions: GN 105, PmxR
Procedure, shortened: as §1

[12] = tested on: P. aeruginosa GN_043, PmxR
Procedure, shortened: as §1

[13] = in vitro; conditions: human
Procedure, shortened: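 HK2 cells were seeded at 2000 per well in DMEM/F12 with 10% FBS and left to attach for 24 h at 37 °C, 5% CO2. They were then exposed for 24 h to 3-fold peptide dilutions starting from 600 μM solutions in quadruplicate. LDH release was read at 450 nm, and CC50 was fitted from dose-response curves.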

Row | SMILES | MIC E. coli ATCC 25922 [1] [µg/mL] | MIC K. pneumoniae GN_106, PmxR [2] [µg/mL] | MIC A. baumannii ATCC 19606 [3] [µg/mL] | MIC P. aeruginosa ATCC 27853 [4] [µg/mL] | MIC A. baumannii GN_093 PmxR [5] [µg/mL] | MIC K. pneumoniae ATCC BAA-2146, NDM-1 pos [6] [µg/mL] | MIC K. pneumoniae ATCC 13883 [7] [µg/mL] | MIC K. pneumoniae ATCC 700603, MDR [8] [µg/mL] | MIC S. aureus ATCC 25923, MSSA [9] [µg/mL] | MIC K. pneumoniae GN_102 PmxR [10] [µg/mL] | MIC P. aeruginosa GN_105, PmxR [11] [µg/mL] | MIC P. aeruginosa GN_043, PmxR ([12]; polymyxin-resistant) [µg/mL] | CC50 at 24 h [13] [µM] | MIC P. aeruginosa GN_043, PmxR ([12]; P. aeruginosa GN_043, PmxR) [µg/mL]
1 | CCCCCCC[C@@H](O)CC(=O)N[C@H](CCN)C(=O)N[C@H]1CCNC(=O)[C@H](CCCNC(=N)N)NC(=O)[C@H](CCN)NC(=O)[C@H](CCN)NC(=O)[C@H](CC(C)C)NC(=O)[C@@H](Cc2ccccc2)NC(=O)[C@H](CCN)NC1=O [compound 6508, 3(R)OH-nC9CO-D-Dab-cyc[L-Dab-L-Dab-D-Phe-L-Leu-L-Dab-L-Dab-L-Arg]] ({Decanoyl(3R-OH)}-[dDab][Dab][Dab][dF]L[Dab][Dab]R; lactam 2-C) | 16 (≈ 14.7 µM) | >32 | >64 | 2 (≈ 1.84 µM) | >32 | >64 | >64 | 16 (≈ 14.7 µM) | >32 | >32 | 32 (≈ 29.4 µM) | >32 | 142 | 
2 | CCCCCCC[C@@H](O)CC(=O)N[C@H](CCN)C(=O)N[C@H]1CCNC(=O)[C@H](CO)NC(=O)[C@H](CCN)NC(=O)[C@H](CCN)NC(=O)[C@H](CC(C)C)NC(=O)[C@@H](Cc2ccccc2)NC(=O)[C@H](CCN)NC1=O [compound 6510, 3(R)OH-nC9CO-D-Dab-cyc[L-Dab-L-Dab-D-Phe-L-Leu-L-Dab-L-Dab-L-Ser]] ({Decanoyl(3R-OH)}-[dDab][Dab][Dab][dF]L[Dab][Dab]S; lactam 2-C) | 1 (≈ 0.982 µM) | >32 | >64 | 1 (≈ 0.982 µM) | >32 | 4 (≈ 3.93 µM) | 64 (≈ 62.9 µM) | 4 (≈ 3.93 µM) | >64 | >32 | 16 (≈ 15.7 µM) | 1 (≈ 0.982 µM) | 149 | 
3 | CCCCCCC[C@@H](O)CC(=O)N[C@H](CCN)C(=O)N[C@H]1CCNC(=O)[C@H](Cc2ccc(O)cc2)NC(=O)[C@H](CCN)NC(=O)[C@H](CCN)NC(=O)[C@H](CC(C)C)NC(=O)[C@@H](Cc2ccccc2)NC(=O)[C@H](CCN)NC1=O [compound 6511, 3(R)OH-nC9CO-D-Dab-cyc[L-Dab-L-Dab-D-Phe-L-Leu-L-Dab-L-Dab-L-Tyr]] ({Decanoyl(3R-OH)}-[dDab][Dab][Dab][dF]L[Dab][Dab]Y; lactam 2-C) | 8 (≈ 7.31 µM) | 8 (≈ 7.31 µM) | 32 (≈ 29.2 µM) | 2 (≈ 1.83 µM) | 32 (≈ 29.2 µM) | 2 (≈ 1.83 µM) | 8 (≈ 7.31 µM) | 4 (≈ 3.66 µM) | 32 (≈ 29.2 µM) | 8 (≈ 7.31 µM) | 4 (≈ 3.66 µM) | 1 (≈ 0.914 µM) | 76 | 
4 | CCCCCCC[C@@H](O)CC(=O)N[C@H](CCN)C(=O)N[C@H]1CCNC(=O)[C@H](CCC(=O)O)NC(=O)[C@H](CCN)NC(=O)[C@H](CCN)NC(=O)[C@H](CC(C)C)NC(=O)[C@@H](Cc2ccccc2)NC(=O)[C@H](CCN)NC1=O [compound 6512, 3(R)OH-nC9CO-D-Dab-cyc[L-Dab-L-Dab-D-Phe-L-Leu-L-Dab-L-Dab-L-Glu]] ({Decanoyl(3R-OH)}-[dDab][Dab][Dab][dF]L[Dab][Dab]E; lactam 2-C) | >64 | >32 | >64 | 8 (≈ 7.54 µM) | >32 | >64 | >64 | 64 (≈ 60.4 µM) | >32 | >32 | >32 | >32 | > 300 | 
5 | CCCCCCC[C@@H](O)CC(=O)N[C@H](CCN)C(=O)N[C@H]1CCNC(=O)[C@H](CC(=O)O)NC(=O)[C@H](CCN)NC(=O)[C@H](CCN)NC(=O)[C@H](CC(C)C)NC(=O)[C@@H](Cc2ccccc2)NC(=O)[C@H](CCN)NC1=O [compound 6513, 3(R)OH-nC9CO-D-Dab-cyc[L-Dab-L-Dab-D-Phe-L-Leu-L-Dab-L-Dab-L-Asp]] ({Decanoyl(3R-OH)}-[dDab][Dab][Dab][dF]L[Dab][Dab]D; lactam 2-C) | >64 | >32 | >64 | 4 (≈ 3.82 µM) | >32 | >64 | >64 | 64 (≈ 61.2 µM) | >32 | >32 | >32 | 8 (≈ 7.65 µM) | > 300 | 
6 | CC(C)CCCC(C)CC(=O)N[C@H](CCN)C(=O)N[C@H]1CCNC(=O)[C@H](CC(C)C)NC(=O)[C@H](CCN)NC(=O)[C@H](CCN)NC(=O)[C@H](Cc2ccccc2)NC(=O)[C@@H](CC(C)C)NC(=O)[C@H](CCN)NC1=O (stereo partly drawn) [compound 6515, 3,7-dimethyloctanoic acid-D-Dab-cyc[L-Dab-L-Dab-D-Leu-L-Phe-L-Dab-L-Dab-L-Leu]] (X8-[dDab][Dab][Dab][dL]F[Dab][Dab]L; lactam 2-C) | 2 (≈ 1.94 µM) | 32 (≈ 31.1 µM) | >32 | 2 (≈ 1.94 µM) | 16 (≈ 15.6 µM) | 8 (≈ 7.78 µM) | 8 (≈ 7.78 µM) | 4 (≈ 3.89 µM) | 32 (≈ 31.1 µM) | 16 (≈ 15.6 µM) | 2 (≈ 1.94 µM) |  | 80 | 2 (≈ 1.94 µM)
7 | CCCCCCC[C@@H](O)CC(=O)N[C@H](CCN)C(=O)N[C@H]1CCNC(=O)[C@H]([C@@H](C)O)NC(=O)[C@H](CCN)NC(=O)[C@H](CCNC(=O)[C@@H](N)CCCNC(=N)N)NC(=O)[C@H](CC(C)C)NC(=O)[C@@H](Cc2ccccc2)NC(=O)[C@H](CCN)NC1=O [compound 6656, 3(R)OH-nC9CO-D-Dab-cyc[L-Dab-L-Dab-D-Phe-L-Leu-L-Dab(L-Arg)-L-Dab-L-Thr]] ({Decanoyl(3R-OH)}-[dDab][Dab][Dab][dF]L[Dab](Arg)[Dab]T; lactam 2-C) | 2 (≈ 1.68 µM) | >32 | 16 (≈ 13.5 µM) | 2 (≈ 1.68 µM) | >32 | >32 | >32 | 4 (≈ 3.37 µM) | >32 | >32 | 16 (≈ 13.5 µM) |  | > 300 | 8 (≈ 6.73 µM)
